Target: S1P1 (Homo sapiens, UniProt P21453)
Assay: CNG cAMP Assay (Assay 1)
Type: cell-based
Set-up: host or cells: HEK293 cells expressing the CNG channel
Details: footnote 1: Relative EC50 was measured, read-out: Assay 1 Relative EC50
Procedure: Frozen HEK293 cells expressing the CNG channel and S1P1 (BD Biosciences, San Jose, Calif.) were thawed and plated into the wells of a black, clear bottom, 384-well CellBind plate (Corning, Corning, N.Y.) at 14,000 cells per well. HEK293 cells expressing the CNG channel and CB1 (BD Biosciences) were cultured and plated under the same conditions. The cells were incubated for 16 h at 37° C. in complete DMEM medium (Invitrogen Carlsbad, Calif.) containing 10% FBS (HyClone Logan, Utah), 250 μg/mL geneticin (Invitrogen), and 1 μg/mL puromycin (Sigma-Aldrich, St. Louis, Mo.). A membrane potential dye (BD Biosciences) was added and the plates were incubated for 2-2.5 h at room temperature.
Test compounds were tested at maximum concentrations of 10 μM. Compounds were diluted in DMSO (10 concentration points, 3-fold each) and added to the assay plate at final DMSO concentrations of 1.8%. For each compound, there were duplicate assay plates and each assay plate had duplicate wells per concentration point. Test compounds were added to the cells in a DPBS solution containing 25 μM Ro 20-1724 (Sigma-Aldrich), 500 nM of the A2b receptor agonist NECA (Sigma-Aldrich) and 10 nM (EC95) of S1P (Avanti Alabaster, Ala.) and incubated for 90 min. The assay plate was read before compound addition (T0) and after the 90 min incubation (T90) using an EnVision plate reader (PerkinElmer, Waltham, Mass.) at an excitation wavelength of 350 nm and an emission wavelength of 590 nm. The T90/T0 ratio was determined for each concentration of the test compounds. The percent agonist activity was determined as [(test compound−DMSO alone control)/(NECA alone control−DMSO alone control)*100]. The percent activities were plotted against compound concentration to determine EC50 using XLFit (IDBS, Alameda, Calif.). The control used for calculating rEC50 in the S1P1 CNG agonist assay was DMSO.
Assay 1 is the CNG cAMP Assay as described in Biological Example 1. Assay 2a and 2b are the Tango™ β-arrestin Recruitment Assay in HEK293 and U2OS cells, respectively, as described in Biological Example 2. Assay 3a is the hS1P1R GTPγS Binding Assay as described in Biological Example 3. Assay 3b is the GTP-Eu Binding Assay as described in Biological Example 3. EC50's were measured unless otherwise noted. […] In the table, “nt” means the Compound was not tested and “no” means the compound was tested but had no measurable activity under the assay conditions employed.

Sequence of S1P1 (P21453 whole entry): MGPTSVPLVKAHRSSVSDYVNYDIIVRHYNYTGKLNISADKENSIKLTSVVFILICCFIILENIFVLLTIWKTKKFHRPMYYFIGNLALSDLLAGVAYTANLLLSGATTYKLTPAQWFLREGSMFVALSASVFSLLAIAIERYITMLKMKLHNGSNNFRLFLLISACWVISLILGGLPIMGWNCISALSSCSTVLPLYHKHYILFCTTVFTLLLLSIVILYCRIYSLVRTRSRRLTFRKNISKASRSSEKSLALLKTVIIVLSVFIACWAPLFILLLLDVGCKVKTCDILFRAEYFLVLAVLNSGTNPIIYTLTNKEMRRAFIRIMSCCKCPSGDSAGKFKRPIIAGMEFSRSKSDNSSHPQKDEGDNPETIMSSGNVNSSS

EC50	Structure (SMILES)
1000 to 5000 nM	O=C(O)c1cc2cc(-c3noc(-c4cn5cc(C(F)(F)F)cc(Cl)c5n4)n3)ccc2o1 [Example 158, 5-{5-[8-chloro-6-(trifluoromethyl)imidazo[1,2-a]pyridin-2-yl]-1,2,4-oxadiazol-3-yl}-1-benzofuran-2-carboxylic acid]
5000 to 10000 nM	O=C(O)c1cc2cc(-c3noc(-c4cn5cc(C(F)(F)F)cc(Cl)c5n4)n3)ccc2[nH]1 [Example 169, 5-{5-[8-chloro-6-(trifluoromethyl)imidazo[1,2-a]pyridin-2-yl]-1,2,4-oxadiazol-3-yl}-1H-indole-2-carboxylic acid]
100 to 500 nM	CC(Oc1cc(Cl)c(-c2nc(-c3cn4cc(C(F)(F)F)cc(Cl)c4n3)no2)cc1F)C(=O)O (stereo not drawn) [Example 205, 2-[(5-chloro-4-{3-[8-chloro-6-(trifluoromethyl)imidazo[1,2-a]pyridin-2-yl]-1,2,4-oxadiazol-5-yl}-2-fluorophenyl)oxy]propanoic acid]
1000 to 5000 nM	OCCN1CCC(Oc2ccc(-c3noc(-c4cn5cc(C(F)(F)F)cc(Cl)c5n4)n3)c(Cl)c2)C1 (stereo not drawn) [Example 210, 2-{3-[(3-chloro-4-{5-[8-chloro-6-(trifluoromethyl)imidazo[1,2-a]pyridin-2-yl]-1,2,4-oxadiazol-3-yl}phenyl)oxy]pyrrolidin-1-yl}ethanol]

Same assay, conditions: read-out: Assay 1 EC50

EC50	Structure (SMILES)
100 to 500 nM	Fc1cccc(-c2noc(-c3cn4cc(C(F)(F)F)cc(Cl)c4n3)n2)c1Cl [Example 157, 8-chloro-2-[3-(2-chloro-3-fluorophenyl)-1,2,4-oxadiazol-5-yl]-6-(trifluoromethyl)imidazo[1,2-a]pyridine]
100 to 500 nM	Fc1cccc(Cl)c1-c1noc(-c2cn3cc(C(F)(F)F)cc(Cl)c3n2)n1 [Example 163, 8-chloro-2-[3-(2-chloro-6-fluorophenyl)-1,2,4-oxadiazol-5-yl]-6-(trifluoromethyl)imidazo[1,2-a]pyridine]
≤ 100 nM	Fc1ccc(-c2noc(-c3cn4cc(C(F)(F)F)cc(Cl)c4n3)n2)c(Br)c1 [Example 168, 2-[3-(2-bromo-4-fluorophenyl)-1,2,4-oxadiazol-5-yl]-8-chloro-6-(trifluoromethyl)imidazo[1,2-a]pyridine]
≤ 100 nM	CC(CC(N)=O)c1ccc(-c2noc(-c3cn4cc(C(F)(F)F)cc(Cl)c4n3)n2)c(Cl)c1 (stereo not drawn) [Example 170, 3-(3-chloro-4-{5-[8-chloro-6-(trifluoromethyl)imidazo[1,2-a]pyridin-2-yl]-1,2,4-oxadiazol-3-yl}phenyl)butanamide]
≤ 100 nM	NC(=O)Cn1ccc2c(-c3noc(-c4cn5cc(C(F)(F)F)cc(Cl)c5n4)n3)cccc21 [Example 174, 2-(4-{5-[8-chloro-6-(trifluoromethyl)imidazo[1,2-a]pyridin-2-yl]-1,2,4-oxadiazol-3-yl}-1H-indol-1-yl)acetamide]
500 to 1000 nM	FC(F)(F)c1ccc(-c2noc(-c3cn4cc(C(F)(F)F)cc(Cl)c4n3)n2)c(Cl)c1 [Example 183, 8-chloro-2-{3-[2-chloro-4-(trifluoromethyl)phenyl]-1,2,4-oxadiazol-5-yl}-6-(trifluoromethyl)imidazo[1,2-a]pyridine]
≤ 100 nM	Oc1ccc(-c2noc(-c3cn4cc(C(F)(F)F)cc(Cl)c4n3)n2)c(Cl)c1 [Example 187, 3-chloro-4-{5-[8-chloro-6-(trifluoromethyl)imidazo[1,2-a]pyridin-2-yl]-1,2,4-oxadiazol-3-yl}phenol]
100 to 500 nM	CC(Cc1ccc(-c2noc(-c3cn4cc(C(F)(F)F)cc(Cl)c4n3)n2)c(F)c1)C(=O)O (stereo not drawn) [Example 192, 3-(4-{5-[8-chloro-6-(trifluoromethyl)imidazo[1,2-a]pyridin-2-yl]-1,2,4-oxadiazol-3-yl}-3-fluorophenyl)-2-methylpropanoic acid]
100 to 500 nM	OCCCOc1ccc(-c2noc(-c3cn4cc(C(F)(F)F)cc(Cl)c4n3)n2)c(Cl)c1 [Example 199, 3-[(3-chloro-4-{5-[8-chloro-6-(trifluoromethyl)imidazo[1,2-a]pyridin-2-yl]-1,2,4-oxadiazol-3-yl}phenyl)oxy]propan-1-ol]
100 to 500 nM	CC(N)COc1ccc(-c2noc(-c3cn4cc(C(F)(F)F)cc(Cl)c4n3)n2)c(Cl)c1 (stereo not drawn) [Example 200, 1-[(3-chloro-4-{5-[8-chloro-6-(trifluoromethyl)imidazo[1,2-a]pyridin-2-yl]-1,2,4-oxadiazol-3-yl}phenyl)oxy]propan-2-amine]

Second part, the compound before the results:

Structure (SMILES)	EC50
Cc1cc(F)ccc1-c1noc(-c2cn3cc(C(F)(F)F)cc(Cl)c3n2)n1 [Example 152, 8-chloro-2-[3-(4-fluoro-2-methylphenyl)-1,2,4-oxadiazol-5-yl]-6-(trifluoromethyl)imidazo[1,2-a]pyridine]	≤ 100 nM
FC(F)(F)c1cc(Cl)c2nc(-c3nc(-c4cccc5[nH]ccc45)no3)cn2c1 [Example 162, 8-chloro-2-[3-(1H-indol-4-yl)-1,2,4-oxadiazol-5-yl]-6-(trifluoromethyl)imidazo[1,2-a]pyridine]	≤ 100 nM
FC(F)(F)c1cc(Cl)c2nc(-c3nc(-c4ccc5[nH]cnc5c4)no3)cn2c1 [Example 164, 5-{5-[8-chloro-6-(trifluoromethyl)imidazo[1,2-a]pyridin-2-yl]-1,2,4-oxadiazol-3-yl}-1H-benzimidazole]	100 to 500 nM
FC(F)(F)c1cc(Cl)c2nc(-c3nc(-c4ccccc4C(F)(F)F)no3)cn2c1 [Example 165, 8-chloro-6-(trifluoromethyl)-2-{3-[2-(trifluoromethyl)phenyl]-1,2,4-oxadiazol-5-yl}imidazo[1,2-a]pyridine]	100 to 500 nM
O=C(Cn1ccc2c(-c3noc(-c4cn5cc(C(F)(F)F)cc(Cl)c5n4)n3)cccc21)NCCO [Example 175, 2-(4-{5-[8-chloro-6-(trifluoromethyl)imidazo[1,2-a]pyridin-2-yl]-1,2,4-oxadiazol-3-yl}-1H-indol-1-yl)-N-(2-hydroxyethyl)acetamide]	≤ 100 nM
CC(CC(=O)O)c1ccc(-c2noc(-c3cn4cc(C(F)(F)F)cc(Cl)c4n3)n2)c(F)c1 (stereo not drawn) [Example 186, 3-(4-{5-[8-chloro-6-(trifluoromethyl)imidazo[1,2-a]pyridin-2-yl]-1,2,4-oxadiazol-3-yl}-3-fluorophenyl)butanoic acid]	100 to 500 nM
N[C@@H](COc1ccc(-c2noc(-c3cn4cc(C(F)(F)F)cc(Cl)c4n3)n2)c(Cl)c1)C(=O)O [Example 188, O-(3-chloro-4-{5-[8-chloro-6-(trifluoromethyl)imidazo[1,2-a]pyridin-2-yl]-1,2,4-oxadiazol-3-yl}phenyl)serine]	100 to 500 nM
CC(Cc1ccc(-c2noc(-c3cn4cc(C(F)(F)F)cc(Br)c4n3)n2)c(Cl)c1)C(=O)O (stereo not drawn) [Example 189, 3-(4-{5-[8-bromo-6-(trifluoromethyl)imidazo[1,2-a]pyridin-2-yl]-1,2,4-oxadiazol-3-yl}-3-chlorophenyl)-2-methylpropanoic acid]	≤ 100 nM
NC(CC(=O)O)c1ccc(-c2noc(-c3cn4cc(C(F)(F)F)cc(Cl)c4n3)n2)c(Cl)c1 (stereo not drawn) [Example 193, 3-amino-3-(3-chloro-4-{5-[8-chloro-6-(trifluoromethyl)imidazo[1,2-a]pyridin-2-yl]-1,2,4-oxadiazol-3-yl}phenyl)propanoic acid]	100 to 500 nM
NCCOc1ccc(-c2nc(-c3cn4cc(C(F)(F)F)cc(Cl)c4n3)no2)c(Cl)c1 [Example 195, 2-[(3-chloro-4-{3-[8-chloro-6-(trifluoromethyl)imidazo[1,2-a]pyridin-2-yl]-1,2,4-oxadiazol-5-yl}phenyl)oxy]ethanamine]	100 to 500 nM
Oc1cc(Cl)c(-c2noc(-c3cn4cc(C(F)(F)F)cc(Br)c4n3)n2)cc1Cl [Example 197, 4-{5-[8-bromo-6-(trifluoromethyl)imidazo[1,2-a]pyridin-2-yl]-1,2,4-oxadiazol-3-yl}-2,5-dichlorophenol]	100 to 500 nM
O=C(O)C1CC1c1ccc(-c2noc(-c3cn4cc(C(F)(F)F)cc(Cl)c4n3)n2)cc1Cl (stereo not drawn) [Example 215, 2-(2-chloro-4-{5-[8-chloro-6-(trifluoromethyl)imidazo[1,2-a]pyridin-2-yl]-1,2,4-oxadiazol-3-yl}phenyl)cyclopropanecarboxylic acid]	≤ 100 nM
CC(CO)Oc1cc(Cl)c(-c2nc(-c3cn4cc(C(F)(F)F)cc(Cl)c4n3)no2)cc1F (stereo not drawn) [Example 217, 2-[(5-chloro-4-{3-[8-chloro-6-(trifluoromethyl)imidazo[1,2-a]pyridin-2-yl]-1,2,4-oxadiazol-5-yl}-2-fluorophenyl)oxy]propan-1-ol]	≤ 100 nM

— patent US20100160369A1, “S1P1 Agonists and Methods of Making And Using” (EXELIXIS, INC., priority 2008, published 2010)
